According to ChEMBL document CHEMBL4680162, “Synthesis and pharmacological evaluation of chlorin derivatives for photodynamic therapy of cholangiocarcinoma” (Eur J Med Chem, 2020):
Blank lines part the entries; values can stand above or below the compound they belong to. The source made the active and inactive calls. The calls are words filed in the database; no cut-off is given here.

Columns and labels:
[1] = Induction of apoptosis in human QBC939 cells assessed as early apoptotic cells at 2 uM in presence of 2J/cm2 light irradiation measured after 24 hrs by annexin V-FITC and propidium iodide staining based flow cytometric analysis (reference value: 0.01 %); type: functional
[2] = Absorption property of the compound in DMSO assessed as Q band maximum absorption wavelength by UV-visible spectrophotometric method; type: physicochemical
[3] = Emission property of compound in DMSO assessed as Q band emission wavelength by […]; type: physicochemical
[4] = Induction of singlet oxygen generation in DMF solution irradiated with 650 nanometer laser light in every 1 min by ESR assay; type: functional
[5] = Absorption property of compound in poly-oxyethylene castor oil and PBS assessed as Q band maximum absorption wavelength by UV-visible spectrophotometric method; type: physicochemical; conditions: buffer
[6] = Drug localization in lysosome of human QBC939 cells at 4 uM incubated for 4 hrs in dark by lyso-tracker blue based confocal microscopic method; type: ADME, subcellular; conditions: qbc939, 4 h
[7] = Induction of apoptosis in human QBC939 cells assessed as early apoptotic cells at 2 uM in presence of 2J/cm2 light irradiation measured after 2 hrs by annexin V-FITC and propidium iodide staining based flow cytometric analysis (reference value: 0.01 %); type: functional
[8] = Induction of apoptosis in human QBC939 cells assessed as necrotic cells at 2 uM by annexin V-FITC and propidium iodide staining based flow cytometric analysis; type: functional
[9] = Phototoxicity against human QBC939 cells assessed as reduction in cell viability irradiated with 1 J/cm2 of 650 nanometer laser light preincubated for 24 hrs in dark and measured after 24 hrs by MTT assay; type: functional, cell-based; conditions: QBC939, light or radiation study
[10] = Absorption property of the compound in DMF assessed as Q band maximum absorption wavelength by UV-visible spectrophotometric method; type: physicochemical
QBC939 [11] = test: Photodynamic antitumour activity against human QBC939 cells xenografted in BABL/c nude mouse assessed as increase in apoptotic cells at 1 mg/kg, iv measured after 1 day of light irradiation by TUNEL assay; type: functional, organism-based
[12] = Induction of apoptosis in human QBC939 cells assessed as viable cells at 2 uM by annexin V-FITC and propidium iodide staining based flow cytometric analysis (reference value: 99.99 %); type: functional; conditions: read-out: Activity
[13] = Photodynamic antitumor activity against human QBC939 cells xenografted in BALB/c nude mouse assessed as tumor weight at 1 mg/kg, iv followed by laser light irradiation at 120 J/cm2 measured after 13 days; type: functional; conditions: time 13 day
[14] = Induction of apoptosis in human QBC939 cells assessed as viable cells at 2 uM in presence of 2J/cm2 light irradiation measured after 24 hrs by annexin V-FITC and propidium iodide staining based flow cytometric analysis (reference value: 99.6 %); type: functional; conditions: QBC939, light or radiation study, read-out: Activity
[15] = Phototoxicity in ICR mouse assessed as ear weight at 1 mg/kg, iv followed by 10 mW/cm2 light irradiation for 10 mins at 1 day after drug challenge and measured after 1 day of light irradiation by H and E staining based microscopic analysis (reference value: 12.4 +/- 1.5 mg); type: organism-based; conditions: in vivo, 48 h, time 2 day
[16] = Emission property of compound in DMF assessed as Q band emission wavelength by […]; type: physicochemical
[17] = Dark toxicity in human QBC939 cells assessed as reduction in cell viability incubated under dark for 24 hrs measured after 24 hrs by MTT assay; type: cell-based; conditions: read-out: TC50
[18] = Induction of apoptosis in human QBC939 cells assessed as late apoptotic cells at 2 uM by annexin V-FITC and propidium iodide staining based flow cytometric analysis; type: functional
[19] = Induction of apoptosis in human QBC939 cells assessed as early apoptotic cells at 2 uM by annexin V-FITC and propidium iodide staining based flow cytometric analysis (reference value: 0.01 %); type: functional
[20] = Emission property of compound in poly-oxyethylene castor oil and PBS assessed as Q band emission wavelength by […]; type: physicochemical; conditions: buffer
[21] = Induction of singlet oxygen generation in DMSO assessed as bleaching rate at 10 uM under 650 nanometer light irradiation; type: functional
[22] = Phototoxicity in ICR mouse assessed as tail weight at 1 mg/kg, iv followed by 10 mW/cm2 light irradiation for 10 mins at 1 day after drug challenge and measured after 1 day of light irradiation by H and E staining based microscopic analysis (reference value: 115.6 +/- 5.6 mg); type: organism-based; conditions: in vivo, 48 h, time 2 day
[23] = Induction of apoptosis in human QBC939 cells assessed as necrotic cells at 2 uM in presence of 2J/cm2 light irradiation measured after 24 hrs by annexin V-FITC and propidium iodide staining based flow cytometric analysis (reference value: 0.02 %); type: functional
[24] = Absorption property of the compound in DMSO assessed as Q band log absorption coefficient by UV-visible spectrophotometric method; type: physicochemical
[25] = Drug uptake in human QBC939 cells at 4 uM by fluorescence spectrophotometer analysis; type: ADME, cell-based; conditions: qbc939, 4 µM
[26] = Phototoxicity in ICR mouse assessed as pathological changes 1 mg/kg, iv in presence of 10 mW/cm2 light irradiation for 10 mins at 1 day after drug challenge and measured after 1 day of light irradiation by H and E staining based microscopic analysis; type: organism-based; conditions: in vivo, 48 h, time 2 day
[27] = Absorption property of the compound in DMF assessed as Q band log absorption coefficient by UV-visible spectrophotometric method; type: physicochemical
QBC939 [28] = test: Photodynamic antitumor activity against human QBC939 cells xenografted in BALB/c nude mouse assessed as decrease in tumor weight at 1 mg/kg, iv under dark condition measured after 13 days; type: functional, organism-based; conditions: time 13.0 day
[29] = Drug uptake in nude mouse xenografted with QBC939 cells assessed as drug level in tumor tissue at 1 mg/kg, iv measured after 8 hrs by fluorescence imaging assay; type: ADME, organism-based, Neoplasm; conditions: in vivo
[30] = Induction of apoptosis in human QBC939 cells assessed as late apoptotic cells at 2 uM in presence of 2J/cm2 light irradiation measured after 24 hrs by annexin V-FITC and propidium iodide staining based flow cytometric analysis (reference value: 0.01 %); type: functional
[31] = Drug uptake in nude mouse xenografted with QBC939 cells assessed as drug level in tumor tissue at 1 mg/kg, iv measured after 24 hrs by fluorescence imaging assay; type: ADME, organism-based, Neoplasm; conditions: in vivo
[32] = Phototoxicity against human QBC939 cells assessed as reduction in cell viability irradiated with 4 J/cm2 of 650 nanometer laser light preincubated for 24 hrs in dark and measured after 24 hrs by MTT assay; type: functional, cell-based; conditions: QBC939, light or radiation study
[33] = Induction of apoptosis in human QBC939 cells assessed as viable cells at 2 uM in presence of 2J/cm2 light irradiation measured after 2 hrs by annexin V-FITC and propidium iodide staining based flow cytometric analysis (reference value: 99.6 %); type: functional; conditions: QBC939, light or radiation study, read-out: Activity
[34] = Drug uptake in mouse assessed as drug level in plasma at 1 mg/kg, iv measured upto 24 hrs by fluorometric method; type: ADME, organism-based; conditions: in vivo
[35] = Phototoxicity against human QBC939 cells assessed as reduction in cell viability irradiated with 2 J/cm2 of 650 nanometer laser light preincubated for 24 hrs in dark and measured after 24 hrs by MTT assay; type: functional, cell-based; conditions: QBC939, light or radiation study
[36] = Phototoxicity in ICR mouse assessed as back skin weight at 1 mg/kg, iv followed by 10 mW/cm2 light irradiation for 10 mins at 1 day after drug challenge and measured after 1 day of light irradiation by H and E staining based microscopic analysis (reference value: 34.3 +/- 2.1 mg); type: organism-based; conditions: in vivo, 48 h, time 2 day
[37] = Absorption property of compound in poly-oxyethylene castor oil and PBS assessed as Q band log absorption coefficient by UV-visible spectrophotometric method; type: physicochemical; conditions: buffer
[38] = Induction of apoptosis in human QBC939 cells assessed as late apoptotic cells at 2 uM in presence of 2J/cm2 light irradiation measured after 2 hrs by annexin V-FITC and propidium iodide staining based flow cytometric analysis (reference value: 0.01 %); type: functional
[39] = Drug localization in nucleus of human QBC939 cells at 4 uM incubated for 4 hrs in dark by Hoechst 33342 based confocal microscopic method; type: ADME, subcellular; conditions: qbc939, 4 h
[40] = Induction of apoptosis in human QBC939 cells assessed as necrotic cells at 2 uM in presence of 2J/cm2 light irradiation measured after 2 hrs by annexin V-FITC and propidium iodide staining based flow cytometric analysis (reference value: 0.02 %); type: functional
[41] = Drug localization in mitochondria of human QBC939 cells at 4 uM incubated for 4 hrs in dark by mito-tracker green based confocal microscopic method; type: ADME; conditions: qbc939, 4 h
[42] = Phototoxicity in ICR mouse assessed as neck skin weight at 1 mg/kg, iv followed by 10 mW/cm2 light irradiation for 10 mins at 1 day after drug challenge and measured after 1 day of light irradiation by H and E staining based microscopic analysis (reference value: 36.5 +/- 2.4 mg); type: organism-based; conditions: in vivo, 48 h, time 2 day
[43] = Phototoxicity in ICR mouse assessed as skin swelling at 1 mg/kg, iv followed by 10 mW/cm2 light irradiation for 10 mins at 1 day after drug challenge and measured after 1 day of light irradiation by H and E staining based microscopic analysis; type: organism-based; conditions: in vivo, 48 h, time 2 day
[44] = Phototoxicity in ICR mouse assessed as dermal inflammation 1 mg/kg, iv in presence of 10 mW/cm2 light irradiation for 10 mins at 1 day after drug challenge and measured after 1 day of light irradiation by H and E staining based microscopic analysis; type: organism-based; conditions: in vivo, 48 h, time 2 day
[45] = Phototoxicity in ICR mouse assessed as skin erythema at 1 mg/kg, iv followed by 10 mW/cm2 light irradiation for 10 mins at 1 day after drug challenge and measured after 1 day of light irradiation by H and E staining based microscopic analysis; type: organism-based; conditions: in vivo, 48 h, time 2 day
[46] = Phototoxicity in ICR mouse assessed as ear swelling at 1 mg/kg, iv followed by 10 mW/cm2 light irradiation for 10 mins at 1 day after drug challenge and measured after 1 day of light irradiation by H and E staining based microscopic analysis; type: organism-based; conditions: in vivo, 48 h, time 2 day

Activity [2]: 654 nm | Activity [3]: 650 nm | Activity [5]: 650 nm | Drug uptake [6]: Active | Activity [10]: 652 nm | Activity [16]: 652 nm | Activity [20]: 655 nm | Activity [24]: 4 | Drug uptake [25]: Active | Activity [27]: 4.03 | Drug uptake [29]: Active | Drug uptake [31]: Active | Drug uptake [34]: Active | Activity [37]: 3.34 | Drug uptake [39]: Not Active | Drug uptake [41]: Active
Compound: COC(=O)C1(C(=O)NCCO)C2c3nc(c(-c4ccccc4)c4ccc([nH]4)c(-c4ccccc4)c4nc(c(-c5ccccc5)c5ccc([nH]5)c3-c3ccccc3)C=C4)C21 (configuration not stated)
Activity [1]: 19.8% | Activity [4]: Active | Activity [7]: 2.1% | Activity [8]: 0.96% | IC50 [9]: 3.41 µM | Activity (QBC939 [11]): Active | viability at 2 µM [12]: 95.1% | Activity [13]: 17% | viability at 2 µM [14]: 25.6% | Activity [15]: 13.2 mg | CC50 at 48 h [17]: > 8 µM | Activity [18]: 2.32% | Activity [19]: 1.65% | Activity [21]: Active | Activity [22]: 114.9 mg | Activity [23]: 9.7% | Activity [26]: Non-Toxic | Activity (QBC939 [28]): inactive | Activity [30]: 44.9% | IC50 [32]: 1.17 µM | viability at 2 µM [33]: 75.9% | IC50 [35]: 1.92 µM | Activity [36]: 35.3 mg | Activity [38]: 4.9% | Activity [40]: 17.07% | Activity [42]: 38.1 mg

Compound: Oc1cccc(-c2c3nc(c(-c4cccc(O)c4)c4ccc([nH]4)c(-c4cccc(O)c4)c4nc(c(-c5cccc(O)c5)c5ccc2[nH]5)CC4)C=C3)c1 [TEMOPORFIN]
Activity [43]: Toxic | IC50 [9]: 2.96 µM | Activity (QBC939 [11]): Active | Activity [13]: 35% | Activity [15]: 15.6 mg | Activity [44]: Toxic | CC50 at 48 h [17]: 6.08 µM | Activity [22]: 120.4 mg | Activity (QBC939 [28]): inactive | Activity [45]: Toxic | IC50 [32]: 0.63 µM | IC50 [35]: 1.46 µM | Activity [36]: 39.2 mg | Activity [46]: Toxic | Activity [42]: 42.7 mg
